Test results reported in patent publication US6495528B1 (SmithKline Beecham Corporation, priority 1998, dated 2002).

Columns and labels:
Format in all cases: cell-based
[1] = molecular target: T1, human adenosine 2a receptor (Homo sapiens, UniProt P29274); experiment: Agonist activity at adenosine 2a receptor, CHO cells with CRE-SPAP reporter (basal cAMP); conditions: CHO cells transfected with human A2a receptor; effect on basal cAMP via SPAP; ratio to NECA; minimum values (about 20% inactive impurity)
T1 construct: expressed in transfected cells; host or cells: Chinese hamster ovary (CHO) cells, also transfected with a CRE-SPAP reporter
T1 sequence (P29274 whole entry): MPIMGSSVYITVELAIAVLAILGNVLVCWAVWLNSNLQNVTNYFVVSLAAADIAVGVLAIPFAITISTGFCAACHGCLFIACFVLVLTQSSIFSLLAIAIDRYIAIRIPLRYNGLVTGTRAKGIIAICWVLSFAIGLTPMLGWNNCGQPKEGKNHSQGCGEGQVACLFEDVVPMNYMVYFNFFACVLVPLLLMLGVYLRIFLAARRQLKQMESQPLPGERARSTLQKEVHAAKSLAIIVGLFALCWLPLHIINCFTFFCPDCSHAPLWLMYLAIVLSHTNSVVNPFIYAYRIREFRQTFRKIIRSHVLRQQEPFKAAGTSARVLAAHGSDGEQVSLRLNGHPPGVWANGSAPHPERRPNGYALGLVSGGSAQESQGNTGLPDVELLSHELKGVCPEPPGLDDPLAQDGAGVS
Experimental: (§1) (1) Agonist activity against adenosine 2a, adenosine 1 and adenosine 3 receptor subtypes.
(§2) Agonist selectivity of compounds against other human adenosine receptors is determined using Chinese hamster ovary (CHO) cells transfected with the gene for the relevant human adenosine receptor following a method based on that of Castanon and Spevak, 1994. The CHO cells are also transfected with cyclic AMP response elements promoting the gene for secreted placental alkaline phosphatase (SPAP) (Wood, 1995). The effect of test compounds is determined by their effects on basal levels of cAMP (A2a ) or on forskolin-enhanced cAMP (A1 and A3) as reflected by changes in levels of SPAP. EC50 values for compounds are then determined as a ratio to that of the non-selective agonist N-ethyl carboxamide adenosine (NECA).

[2] = molecular target: T2, human adenosine 1 receptor (Homo sapiens, UniProt P30542); experiment: Agonist activity at adenosine 1 receptor, CHO cells with CRE-SPAP reporter (forskolin-enhanced cAMP); conditions: CHO cells transfected with human A1 receptor; effect on forskolin-enhanced cAMP via SPAP; ratio to NECA; minimum values (about 20% inactive impurity)
T2 construct: expressed in transfected cells; host or cells: Chinese hamster ovary (CHO) cells, also transfected with a CRE-SPAP reporter
T2 sequence (P30542 1-326): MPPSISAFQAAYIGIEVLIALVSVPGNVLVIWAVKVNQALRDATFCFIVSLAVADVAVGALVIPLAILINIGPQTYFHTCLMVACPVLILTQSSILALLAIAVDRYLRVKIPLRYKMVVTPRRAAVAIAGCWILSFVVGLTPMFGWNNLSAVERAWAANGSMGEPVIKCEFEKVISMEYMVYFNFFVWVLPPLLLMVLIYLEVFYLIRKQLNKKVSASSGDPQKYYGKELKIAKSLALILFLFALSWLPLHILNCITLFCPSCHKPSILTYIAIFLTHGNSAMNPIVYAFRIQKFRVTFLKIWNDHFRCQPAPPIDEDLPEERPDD
Experimental: as §1, §2

[3] = molecular target: T3, human adenosine 3 receptor (Homo sapiens, UniProt P0DMS8); experiment: Agonist activity at adenosine 3 receptor, CHO cells with CRE-SPAP reporter (forskolin-enhanced cAMP); conditions: CHO cells transfected with human A3 receptor; effect on forskolin-enhanced cAMP via SPAP; ratio to NECA; minimum values (about 20% inactive impurity)
T3 construct: expressed in transfected cells; host or cells: Chinese hamster ovary (CHO) cells, also transfected with a CRE-SPAP reporter
T3 sequence (P0DMS8 1-318): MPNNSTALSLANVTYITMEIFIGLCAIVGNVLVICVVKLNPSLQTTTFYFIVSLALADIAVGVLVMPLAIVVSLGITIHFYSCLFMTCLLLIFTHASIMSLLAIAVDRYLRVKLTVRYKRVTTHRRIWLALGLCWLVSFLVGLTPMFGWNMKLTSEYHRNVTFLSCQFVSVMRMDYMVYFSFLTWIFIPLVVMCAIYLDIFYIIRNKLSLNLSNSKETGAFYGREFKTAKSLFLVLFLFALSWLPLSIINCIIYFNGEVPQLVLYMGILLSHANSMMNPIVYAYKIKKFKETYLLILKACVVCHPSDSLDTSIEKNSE
Experimental: as §1, §2

Row | Structure (SMILES) | A2a EC50 as a ratio of that of NECA [1] | A1 EC50 as a ratio of that of NECA [2] | A3 EC50 as a ratio of that of NECA [3]
1 | C=CCn1nnc(C2OC(n3cnc4c(NCC(c5ccccc5)c5ccccc5)nc(NCCN5CCCCC5)nc43)C(O)C2O)n1 [Example 8, (2R,3S,4R,5R)-2-(2-Allyl 2H-tetrazol-5-[6-(2,2-diphenyl-ethylamino)-2-(2-piperidin-1-yl-ethylamino)-purin-9-yl]-tetrahydro-furan-3,4-diolbis(trifluoroacetate)] | 26.38 | >6131 | >165
2 | CC(=O)OCCn1nnc(C2OC(n3cnc4c(NCC(c5ccccc5)c5ccccc5)nc(NCCN5CCCCC5)nc43)C(O)C2O)n1 (stereo not drawn) [Example 3, Acetic acid 2-(5-{5R-[6-(2,2-diphenyl-ethylamino)-2-(2-piperidin-1-yl-ethylamino)-purin-9-yl]-3S,4R-dihydroxy-tetrahydro-furan-2R -yl}-tetrazol-2-yl)-ethyl ester bis(trifluoroacetate)] | 16.59 | 310.5 | >93
3 | OCCn1nnc(C2OC(n3cnc4c(NCC(c5ccccc5)c5ccccc5)nc(NCCN5CCCCC5)nc43)C(O)C2O)n1 [Example 5, (2R,3R,4S,5R)-2-[6-(2,2-Diphenyl-ethylamino)-2-(2-piperidin-1-yl-ethylamino)-purin-9-yl]-5-[2-(2-hydroxy-ethyl)-2H-tetrazo-5-yl]-tetrahydro-furan-3,4-diol bis(trifluoroacetate)] | 10.54 | 159.5 | >94
4 | OCCCn1nnc(C2OC(n3cnc4c(NCC(c5ccccc5)c5ccccc5)nc(NCCN5CCCCC5)nc43)C(O)C2O)n1 [Example 1, 2R,3R,4S,5R)-2-[6-(2,2-Diphenyl-ethylamino)-2-(2-piperidin-1-yl-ethylamino)-purin-9-yl]-5-[2-(3-hydroxy-propyl)-2H-tetrazol-5-yl]-tetrahydro-furan-3,4-diol bis(trifluoroacetate)] | 22.64 | 434.8 | >93
5 | CCCn1nnc(C2OC(n3cnc4c(NCC(c5ccccc5)c5ccccc5)nc(NCCN5CCCCC5)nc43)C(O)C2O)n1 [Example 2, 2R,3R,4S,5R)-2-[6-(2,2-Diphenyl-ethylamino)-2-(2-piperidin-1-yl-ethylamino)-purin-9-yl]-5-(2-propyl-2H-tetrazo-5-tetrahydro-furan-3,4-diol bis(trifluoroacetate)] | 30.95 | 755.4 | >93
6 | O=C(O)C(F)(F)F.O=C(O)C(F)(F)F.O[C@@H]1[C@H](O)[C@@H](c2nnn(C3CCC3)n2)O[C@H]1n1cnc2c(NCC(c3ccccc3)c3ccccc3)nc(NCCN3CCCCC3)nc21 [Example 7] | 22.98 | 597.82 | >95
7 | O=C(O)C(F)(F)F.O=C(O)C(F)(F)F.O[C@@H]1[C@H](O)[C@@H](c2nnn(CCCl)n2)O[C@H]1n1cnc2c(NCC(c3ccccc3)c3ccccc3)nc(NCCN3CCCCC3)nc21 [Example 6] | 24.05 | 411.9 | >97
8 | O=C(O)C(F)(F)F.O=C(O)C(F)(F)F.O[C@@H]1[C@H](O)[C@@H](c2nnn(CC3CC3)n2)O[C@H]1n1cnc2c(NCC(c3ccccc3)c3ccccc3)nc(NCCN3CCCCC3)nc21 [Example 4] | 37.24 | 1318.09 | >93
